Source: publication PMC11378297, “Discovery and Profiling of New Multimodal Phenylglycinamide Derivatives as Potent Antiseizure and Antinociceptive Drug Candidates” (ACS Chemical Neuroscience, 2024)
Like-named read-outs stand apart in the source and are kept apart here. One block for each compound: values may come before it.

Key:
[1] = test system: capsaicin-induced pain, mice; assay: capsaicin-induced pain test; type: in vivo; conditions: Mus musculus, ip, 30 min before capsaicin
[2] = test system: 6 Hz (44 mA) seizures, mice; assay: 6 Hz (44 mA) seizure test; type: in vivo; conditions: Mus musculus, ip, pretreatment time 0.5 h
[3] = target: T1, TRPA1 (h) (Homo sapiens, UniProt O75762); assay: TRPA1 (h) cell based antagonist calcium flux assay; conditions: HEK293, human recombinant HEK-293 cell, read-out: % inhibition of control agonist response
T1 construct: Eurofins
Method: Using previously described testing methodologies, binding/functional tests were conducted on a commercial basis at Eurofins Laboratories (Poitiers, France) and Eurofins Panlabs Discovery Services Taiwan, Ltd. (New Taipei City, Taiwan); see Table S9 for more information.
Table S9. Radioligand binding and functional assays. […]
TRPA1 (h) transient potential ion channel cell based antagonist calcium flux assay […]
Assays were performed commercially in Eurofins Laboratories (Poitiers, France) or Eurofins Panlabs Discovery Services
Taiwan, Ltd. (New Taipei City, Taiwan).

[4] = test system: OXPT-induced tactile allodynia, mice; assay: oxaliplatin (OXPT)-induced peripheral neuropathy, von Frey test
[5] = test system: STZ-induced tactile allodynia, mice; assay: streptozotocin (STZ)-induced peripheral neuropathy, von Frey test; type: in vivo, mouse; conditions: 21 days after STZ
Text: To test whether the compounds are active in the neuropathic pain resulting from another mechanism of neuronal injury, we tested them in streptozotocin (STZ)-induced neuropathy. STZ is the commonly used experimental model to induce diabetic neuropathy. Streptozotocin is toxic to insulin-producing beta cells in the pancreas and selectively damages these cells, leading to insulin deficiency, which subsequently results in chronic hyperglycemia. Hyperglycemia is a major factor in the development of diabetic neuropathy. Elevated blood glucose levels increase its uptake by nerve cells, which results in metabolic and oxidative stress. Moreover, hyperglycemia leads to the formation of advanced glycation end products (AGEs), which are abnormal protein structures. AGEs can accumulate in neuronal tissue and contribute to nerve dysfunction.[63] […] Additionally, STZ-induced neuropathic pain may also involve alterations in the levels of neurotransmitters such as glutamate and GABA.[64],[65]
Each animal was tested only once. […] Behavioral measurements were observed by trained observers.

[6] = target: T2, Voltage-Gated Sodium channel hNav1.6 (Homo sapiens, UniProt Q9UQD0); assay: human sodium ion channel cell based automated patch clamp assay, hNav1.6
T2 construct: Eurofins Discovery (St. Charles, MO, USA)
Method: Therefore, as a part of the more detailed functional characterization using automated patch clamp method, we tested the influence of (R)-32 on sodium currents mediated by several Navx channels comprising 5 different human subunits, namely, Nav1.1, Nav1.2, Nav1.3, Nav1.6, and Nav1.7, which are involved in both seizure and/or pain modulation.[74],[80],[81] As summarized in Tables S4–S8, (R)-32 starting from 10 μM effectively and in concentration-dependent manner decreased sodium currents mediated by all aforementioned sodium channel subunits. Furthermore, (R)-32 appeared to bind exclusively to sodium channels that are in an inactivated state (see pulse 2 in Tables S4–S8), but not to the channels that are in an open state (pulse 1) (for additional details, see Supporting Information).
Human sodium ion channels cell based automated patch clamp assay
Human sodium ion channels cell based automated patch clamp assays: sodium channels exist in, a) a resting or closed state at -120 mV, b) a transient open state that inactivates to c) inactivated state at -10 mV. Sodium current inhibition within 1-2 ms of channel opening at 0 mV is open channel inhibition (pulse 1). In order to completely inactivate the sodium channels and facilitate inactivated state-dependent binding of the drug, the channels were kept at […] ( -10 mV) longer (pulsed for 500 ms) and then stepped back to -120 mV for 10 ms to recover from inactivation into resting or closed state (but the channels that had drug bound to them will not recover from inactivation and will not open) before stepping to -10 mV for 50 ms (pulse 2) to mea sure sodium channels that are available to open. The higher inhibition seen at pulse 2 is due to inactivated state -dependent inhibition. Pulse 1 and 2 are used to investigate drug binding to the open state and inactivated state of the Na channels, respectively. Each concentration of compound is applied for 5 minutes. The results obtained for (R)-32 are summerized in Tables S4–S8. […]
Compound Concentration Measurement % Inhibition
Data interpretation: Results showing inhibition greater than 50% are considered to represent significant effects of test compound and have been bolded for (R)-32 for better visualization. The studies were carried out in Eurofins Discovery (St. Charles, MO, USA).

[7] = target: T3, Voltage-Gated Sodium channel hNav1.7 (Homo sapiens, UniProt Q15858); assay: human sodium ion channel cell based automated patch clamp assay, hNav1.7
T3 construct: Eurofins Discovery (St. Charles, MO, USA)

[8] = hNav1.6, Pulse 1 (open state), read-out: % Inhibition Mean
[9] = hNav1.6, Pulse 1 (open state), read-out: % Inhibition n1
[10] = hNav1.6, Pulse 1 (open state), read-out: % Inhibition n2
[11] = hNav1.6, Pulse 2 (inactivated state), read-out: % Inhibition Mean
[12] = hNav1.6, Pulse 2 (inactivated state), read-out: % Inhibition n1
[13] = hNav1.6, Pulse 2 (inactivated state), read-out: % Inhibition n2
[14] = hNav1.7, Pulse 1 (open state), read-out: % Inhibition Mean
[15] = hNav1.7, Pulse 1 (open state), read-out: % Inhibition n1
[16] = hNav1.7, Pulse 1 (open state), read-out: % Inhibition n2
[17] = hNav1.7, Pulse 2 (inactivated state), read-out: % Inhibition Mean
[18] = hNav1.7, Pulse 2 (inactivated state), read-out: % Inhibition n1
[19] = hNav1.7, Pulse 2 (inactivated state), read-out: % Inhibition n2

T2 sequence (Q9UQD0 whole entry): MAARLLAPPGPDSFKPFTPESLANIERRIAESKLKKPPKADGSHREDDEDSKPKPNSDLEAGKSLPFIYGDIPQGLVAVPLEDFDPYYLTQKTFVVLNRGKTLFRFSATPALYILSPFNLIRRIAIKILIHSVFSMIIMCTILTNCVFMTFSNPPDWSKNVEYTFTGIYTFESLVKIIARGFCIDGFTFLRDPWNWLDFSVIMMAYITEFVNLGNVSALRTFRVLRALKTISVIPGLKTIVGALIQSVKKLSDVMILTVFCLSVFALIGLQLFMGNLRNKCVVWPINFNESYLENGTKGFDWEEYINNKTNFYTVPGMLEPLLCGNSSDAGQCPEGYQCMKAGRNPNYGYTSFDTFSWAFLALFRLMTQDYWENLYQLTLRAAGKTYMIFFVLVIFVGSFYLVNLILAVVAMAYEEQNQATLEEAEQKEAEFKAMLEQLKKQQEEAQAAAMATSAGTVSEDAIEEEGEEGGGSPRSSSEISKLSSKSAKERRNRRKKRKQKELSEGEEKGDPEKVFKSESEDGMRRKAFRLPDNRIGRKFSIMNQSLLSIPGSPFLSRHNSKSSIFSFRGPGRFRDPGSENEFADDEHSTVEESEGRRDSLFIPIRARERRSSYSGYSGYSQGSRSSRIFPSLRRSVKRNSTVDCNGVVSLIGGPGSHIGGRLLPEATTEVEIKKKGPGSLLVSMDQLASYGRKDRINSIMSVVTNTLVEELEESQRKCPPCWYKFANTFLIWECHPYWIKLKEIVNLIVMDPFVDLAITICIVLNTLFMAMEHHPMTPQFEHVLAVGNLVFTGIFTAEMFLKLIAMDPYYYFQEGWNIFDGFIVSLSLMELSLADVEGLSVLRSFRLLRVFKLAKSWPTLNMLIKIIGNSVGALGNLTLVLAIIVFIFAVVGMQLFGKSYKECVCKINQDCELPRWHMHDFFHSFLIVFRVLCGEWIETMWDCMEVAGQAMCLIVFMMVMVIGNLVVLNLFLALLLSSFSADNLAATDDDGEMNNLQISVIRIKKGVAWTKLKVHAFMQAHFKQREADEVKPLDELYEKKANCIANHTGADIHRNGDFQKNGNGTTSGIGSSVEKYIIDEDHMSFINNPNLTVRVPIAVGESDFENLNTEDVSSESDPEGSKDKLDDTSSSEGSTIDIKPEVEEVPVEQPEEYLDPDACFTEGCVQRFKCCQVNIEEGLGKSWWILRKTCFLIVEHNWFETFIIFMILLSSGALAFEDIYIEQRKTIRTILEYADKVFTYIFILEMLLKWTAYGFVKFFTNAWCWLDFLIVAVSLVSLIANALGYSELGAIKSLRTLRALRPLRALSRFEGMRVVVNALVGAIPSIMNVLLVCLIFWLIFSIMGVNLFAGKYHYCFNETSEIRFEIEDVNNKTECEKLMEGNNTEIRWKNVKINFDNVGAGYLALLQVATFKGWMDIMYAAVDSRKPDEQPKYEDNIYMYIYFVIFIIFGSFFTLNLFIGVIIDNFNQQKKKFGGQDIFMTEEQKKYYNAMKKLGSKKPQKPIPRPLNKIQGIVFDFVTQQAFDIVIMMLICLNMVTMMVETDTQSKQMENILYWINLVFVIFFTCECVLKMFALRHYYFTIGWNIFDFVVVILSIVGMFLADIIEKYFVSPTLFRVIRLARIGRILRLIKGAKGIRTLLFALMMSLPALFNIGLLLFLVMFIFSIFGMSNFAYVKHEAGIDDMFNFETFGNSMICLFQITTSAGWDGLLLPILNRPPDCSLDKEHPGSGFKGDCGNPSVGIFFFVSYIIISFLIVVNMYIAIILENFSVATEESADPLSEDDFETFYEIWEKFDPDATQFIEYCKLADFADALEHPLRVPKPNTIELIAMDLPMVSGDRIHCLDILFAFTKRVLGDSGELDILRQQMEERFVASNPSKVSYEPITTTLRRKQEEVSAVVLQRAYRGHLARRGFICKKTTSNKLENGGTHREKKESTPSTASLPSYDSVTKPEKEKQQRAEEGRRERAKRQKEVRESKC
T3 sequence (Q15858 whole entry): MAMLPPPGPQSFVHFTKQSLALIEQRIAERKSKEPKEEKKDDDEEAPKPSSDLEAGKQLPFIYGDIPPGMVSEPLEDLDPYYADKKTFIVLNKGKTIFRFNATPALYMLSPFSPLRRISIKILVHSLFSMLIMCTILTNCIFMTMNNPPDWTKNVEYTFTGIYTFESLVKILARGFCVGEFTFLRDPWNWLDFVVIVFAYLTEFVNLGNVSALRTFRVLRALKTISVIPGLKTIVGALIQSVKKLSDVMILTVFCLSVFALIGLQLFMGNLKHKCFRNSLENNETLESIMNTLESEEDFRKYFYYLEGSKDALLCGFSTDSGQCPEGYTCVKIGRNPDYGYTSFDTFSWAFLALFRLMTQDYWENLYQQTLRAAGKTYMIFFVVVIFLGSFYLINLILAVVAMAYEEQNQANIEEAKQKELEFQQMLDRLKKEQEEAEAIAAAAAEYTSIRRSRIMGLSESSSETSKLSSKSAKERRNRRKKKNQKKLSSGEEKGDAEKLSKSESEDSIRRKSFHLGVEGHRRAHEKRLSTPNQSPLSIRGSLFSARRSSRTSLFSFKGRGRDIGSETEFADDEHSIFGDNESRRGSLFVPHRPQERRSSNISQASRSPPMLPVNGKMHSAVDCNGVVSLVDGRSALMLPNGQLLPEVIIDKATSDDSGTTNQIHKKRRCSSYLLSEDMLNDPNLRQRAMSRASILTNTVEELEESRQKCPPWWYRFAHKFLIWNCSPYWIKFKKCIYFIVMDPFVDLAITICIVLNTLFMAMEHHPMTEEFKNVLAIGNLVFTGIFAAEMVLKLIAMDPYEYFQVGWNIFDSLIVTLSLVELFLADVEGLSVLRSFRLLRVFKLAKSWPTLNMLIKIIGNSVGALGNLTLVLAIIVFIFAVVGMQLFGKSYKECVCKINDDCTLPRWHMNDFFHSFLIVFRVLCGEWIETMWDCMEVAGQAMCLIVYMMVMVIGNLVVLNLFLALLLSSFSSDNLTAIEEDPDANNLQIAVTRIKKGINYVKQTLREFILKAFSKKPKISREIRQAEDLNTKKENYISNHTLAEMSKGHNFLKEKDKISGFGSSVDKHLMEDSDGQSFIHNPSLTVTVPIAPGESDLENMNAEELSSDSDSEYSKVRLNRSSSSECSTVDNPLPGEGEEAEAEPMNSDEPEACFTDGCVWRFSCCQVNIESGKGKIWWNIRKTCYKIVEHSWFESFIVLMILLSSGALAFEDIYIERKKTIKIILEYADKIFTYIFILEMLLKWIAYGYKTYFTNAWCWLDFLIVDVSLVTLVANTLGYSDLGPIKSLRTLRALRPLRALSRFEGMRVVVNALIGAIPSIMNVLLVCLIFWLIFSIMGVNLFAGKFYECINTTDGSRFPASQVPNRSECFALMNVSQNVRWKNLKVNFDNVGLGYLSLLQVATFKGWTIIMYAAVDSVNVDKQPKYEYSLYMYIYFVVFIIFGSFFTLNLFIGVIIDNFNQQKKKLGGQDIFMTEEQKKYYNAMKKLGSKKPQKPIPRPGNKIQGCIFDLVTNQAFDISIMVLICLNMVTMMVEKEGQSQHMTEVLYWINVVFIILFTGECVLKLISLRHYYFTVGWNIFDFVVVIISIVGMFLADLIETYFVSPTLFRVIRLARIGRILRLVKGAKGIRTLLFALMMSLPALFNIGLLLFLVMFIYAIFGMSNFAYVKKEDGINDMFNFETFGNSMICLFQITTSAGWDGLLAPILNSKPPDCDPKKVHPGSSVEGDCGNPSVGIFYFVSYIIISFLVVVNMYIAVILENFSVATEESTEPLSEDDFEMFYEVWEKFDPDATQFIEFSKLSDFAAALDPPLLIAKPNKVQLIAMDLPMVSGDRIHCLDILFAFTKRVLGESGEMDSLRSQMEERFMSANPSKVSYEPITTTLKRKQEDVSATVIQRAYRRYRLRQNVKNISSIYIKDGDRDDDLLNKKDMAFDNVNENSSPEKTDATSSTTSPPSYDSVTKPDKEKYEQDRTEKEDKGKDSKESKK
T1 sequence (O75762 whole entry): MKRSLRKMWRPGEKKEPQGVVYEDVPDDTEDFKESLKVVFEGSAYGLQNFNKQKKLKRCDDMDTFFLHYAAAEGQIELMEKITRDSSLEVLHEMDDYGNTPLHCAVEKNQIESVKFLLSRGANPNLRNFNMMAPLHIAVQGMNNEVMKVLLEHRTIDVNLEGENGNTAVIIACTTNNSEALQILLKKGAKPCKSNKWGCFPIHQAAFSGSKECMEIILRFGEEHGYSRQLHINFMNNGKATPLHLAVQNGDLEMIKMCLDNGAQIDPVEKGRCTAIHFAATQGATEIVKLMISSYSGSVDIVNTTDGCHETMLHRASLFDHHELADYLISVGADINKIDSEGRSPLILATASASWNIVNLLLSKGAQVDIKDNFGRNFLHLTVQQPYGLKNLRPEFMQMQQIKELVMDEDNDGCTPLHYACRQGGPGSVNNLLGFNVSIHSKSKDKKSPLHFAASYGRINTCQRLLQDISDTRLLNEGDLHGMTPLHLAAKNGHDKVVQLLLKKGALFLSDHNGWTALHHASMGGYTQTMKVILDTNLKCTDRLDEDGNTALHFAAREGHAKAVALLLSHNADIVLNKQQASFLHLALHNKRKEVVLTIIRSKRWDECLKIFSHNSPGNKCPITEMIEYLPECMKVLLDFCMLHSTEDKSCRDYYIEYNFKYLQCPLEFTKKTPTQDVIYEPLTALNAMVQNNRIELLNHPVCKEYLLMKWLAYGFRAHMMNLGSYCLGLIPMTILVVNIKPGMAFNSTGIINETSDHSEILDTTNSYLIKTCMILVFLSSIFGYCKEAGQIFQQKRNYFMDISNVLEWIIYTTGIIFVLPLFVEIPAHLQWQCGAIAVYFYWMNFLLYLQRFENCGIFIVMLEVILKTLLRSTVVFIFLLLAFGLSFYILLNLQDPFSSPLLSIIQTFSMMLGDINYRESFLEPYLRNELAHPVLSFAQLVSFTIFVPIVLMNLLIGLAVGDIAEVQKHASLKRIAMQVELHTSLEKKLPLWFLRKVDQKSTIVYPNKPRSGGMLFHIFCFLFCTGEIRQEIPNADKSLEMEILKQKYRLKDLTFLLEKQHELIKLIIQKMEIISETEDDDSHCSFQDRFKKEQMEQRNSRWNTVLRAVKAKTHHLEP

Compound: CC(=O)N[C@@H](C(=O)N1CCN(c2cccc(C(F)(F)F)c2)CC1)c1ccccc1 [(R)-31, (R)-N-(2-Oxo-1-phenyl-2-(4-(3-(trifluoromethyl)phenyl)piperazin-1-yl)ethyl)acetamide]
ED50 [1]: 53.9 mg/kg
ED50 [2]: 44.2 mg/kg
inhibition at 10 µM [3]: 13.3%
pain threshold, early phase (3 h after OXPT), % of the initial value/baseline ([4]; 50 mg/kg i.p.): 114.5%
pain threshold, early phase (3 h after OXPT), % of the initial value/baseline ([4]; 75 mg/kg i.p.): 93%
pain threshold, late phase (7 days after OXPT), % of the baseline ([4]; 75 mg/kg i.p.): 87%
pain threshold, early phase (3 h after OXPT), % of the initial value ([4]; 100 mg/kg i.p.): 78%
pain threshold, late phase (7 days after OXPT), % of the baseline ([4]; 100 mg/kg i.p.): 77%
pain threshold in STZ-induced neuropathy, % of the baseline ([5]; 25 mg/kg i.p.): did not observe any significant effects
pain threshold in STZ-induced neuropathy, % of the baseline ([5]; 50 mg/kg i.p.): 123%
pain threshold in STZ-induced neuropathy, % of the baseline ([5]; 100 mg/kg i.p.): 178%

inhibition at 3 µM [6, 8]: 4.79%
inhibition at 3 µM [6, 9]: 7.73%
inhibition at 3 µM [6, 10]: 1.85%
inhibition at 30 µM [6, 8]: 34.7%
inhibition at 30 µM [6, 9]: 34.7%
inhibition at 30 µM [6, 10]: 34.7%
inhibition at 300 µM [6, 8]: 75%
inhibition at 300 µM [6, 9]: 68.2%
inhibition at 300 µM [6, 10]: 81.8%
inhibition at 3 µM [6, 11]: 86.4%
inhibition at 3 µM [6, 12]: 80.8%
inhibition at 3 µM [6, 13]: 91.9%
inhibition at 30 µM [6, 11]: 99.2%
inhibition at 30 µM [6, 12]: 95.7%
inhibition at 30 µM [6, 13]: 103%
inhibition at 300 µM [6, 11]: 97.9%
inhibition at 300 µM [6, 12]: 91.3%
inhibition at 300 µM [6, 13]: 104%
inhibition at 3 µM [7, 14]: 8.82%
inhibition at 3 µM [7, 15]: 11.3%
inhibition at 3 µM [7, 16]: 6.36%
inhibition at 30 µM [7, 14]: 27.6%
inhibition at 30 µM [7, 15]: 27.5%
inhibition at 30 µM [7, 16]: 27.8%
inhibition at 300 µM [7, 14]: 95.1%
inhibition at 300 µM [7, 15]: 94.6%
inhibition at 300 µM [7, 16]: 95.6%
inhibition at 3 µM [7, 17]: 47.5%
inhibition at 3 µM [7, 18]: 45.9%
inhibition at 3 µM [7, 19]: 49.1%
inhibition at 30 µM [7, 17]: 98.6%
inhibition at 30 µM [7, 18]: 98%
inhibition at 30 µM [7, 19]: 99.2%
inhibition at 300 µM [7, 17]: 101%
inhibition at 300 µM [7, 18]: 101%
inhibition at 300 µM [7, 19]: 102%
Compound: CCCCNc1ccc(C(=O)OCCN(C)C)cc1 [Tetracaine, reference compound]
